This note sets out measurements from PMC8064320, “Modulation of Glycinergic Neurotransmission may Contribute to the Analgesic Effects of Propacetamol” (Biomolecules, 2021).

What all share (test): two-electrode voltage clamp, agonist-induced current in oocytes
Format in all cases: cell-based
Holding throughout (details): read-out: Glycine Dose-Response Relationship / EC50, -50 mV, ND96 without Ca2+, pH 7.4, 21-23 °C

In one test the test system is T1, GlyRα3.
T1 construct: gene GLRA3; subunit expressed individually (homopentamer by known biology); plasmid pNKS2(GlyRα3); cRNA-injected Xenopus laevis oocytes
The source says: two-electrode voltage clamp, agonist-induced current in oocytes on GlyRα3

Another test has as its system T2, GlyRα1.
T2 construct: gene GLRA1; homomeric receptor (pentamer by known biology); plasmid pNKS2(GlyRα1); cRNA-injected Xenopus laevis oocytes
The source says:
two-electrode voltage clamp, agonist-induced current in oocytes on GlyRα1

Another test concerns T3, GlyRα2.
T3 construct: gene GLRA2; subunit expressed individually (homopentamer by known biology); plasmid pNKS2(GlyRα2); cRNA-injected Xenopus laevis oocytes
The source says:
two-electrode voltage clamp, agonist-induced current in oocytes on GlyRα2

For `NCC(=O)O` [glycine], the EC50 in the test with GlyRα3 stood at 234 µM; with GlyRα1, 162 µM; in the test with GlyRα2, 325 µM.
